Assays:
[1] = target: T1, ALDH2 (Homo sapiens, UniProt P05091); assay: Selectivity biochemical assay, NAD(P)H-Glo Detection System
T1 sequence (P05091 18-517): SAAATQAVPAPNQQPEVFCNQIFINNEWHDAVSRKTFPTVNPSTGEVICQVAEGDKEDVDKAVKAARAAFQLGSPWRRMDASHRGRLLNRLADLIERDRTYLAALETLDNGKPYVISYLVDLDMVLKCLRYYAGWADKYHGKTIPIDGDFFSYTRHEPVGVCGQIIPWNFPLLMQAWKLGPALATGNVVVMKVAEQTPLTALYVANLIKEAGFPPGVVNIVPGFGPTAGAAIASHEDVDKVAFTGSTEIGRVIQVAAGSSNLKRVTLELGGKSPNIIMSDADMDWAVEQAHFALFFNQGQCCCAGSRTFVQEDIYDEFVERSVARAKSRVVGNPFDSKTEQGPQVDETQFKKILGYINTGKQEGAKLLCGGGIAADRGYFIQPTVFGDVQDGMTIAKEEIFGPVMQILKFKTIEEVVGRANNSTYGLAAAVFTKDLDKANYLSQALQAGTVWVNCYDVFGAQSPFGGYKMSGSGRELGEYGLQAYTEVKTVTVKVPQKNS
Method: Materials: ALDH2 was purchased from Abnova. Tris(hydroxymethyl)aminomethane (Tris) was purchased from MP Biomedicals. TCEP, ethylenediaminetetraacetic acid (EDTA), propionaldehyde, DMSO and Tween-20 were purchased from Sigma. Nicotinamide adenine dinucleotide (NAD) was obtained from Abcam. The NAD(P)H-Glo™ Detection System was purchased from Promega. White, non-binding surface, 384 well plates were supplied by Corning (#3574).
Method: Inhibition of ALDH1A3 was assessed using the NAD(P)H-Glo™ Detection System (Cat. No. G9062) from Promega. This assay detects the production of NADH from NAD by ALDH1A3 via the coupled enzymatic conversion of a proluciferin reductase substrate to generate a luminescent signal. Inhibition of ALDH1A3 by small molecule inhibitors will result in reduction or abrogation of luminescence signal increase above background. Inhibition of ALDH1A1, ALDH1A2 and ALDH2 (selectivity assays) were assessed using the same assay.
Compounds were dosed into Corning 384 well assay plates using an Echo acoustic dispenser to give 10 point curves in a 3-fold dilution series. Compounds were dispensed from a 20 mM DMSO stock and initially screened at a top concentration of 20 μM (ALDH1A3) or 250 μM (ALDH1A1, ALDH1A2 & ALDH2). Enzyme was added to the plate in a 5 μL volume, according to the final concentrations in table 1 below, and pre-incubated with compound for 30 minutes at room temperature before the addition of 5 μL of the substrate (propionaldehyde) and cofactor (NAD), to effect final concentrations equal to the Km as shown in Table 1. The assay buffer used consisted of 40 mM Tris for 1A1 (pH 7.6), 1A2 (pH 7.6) and 1A3 (pH 9.0) and 10 mM Tris for ALDH2 (pH 8.0) supplemented with 1 mM TCEP, 0.01% Tween-20, 0.1 mM EDTA. The reaction mix was incubated at 26° C. on a shaking incubator for 30 minutes before being stopped by the addition of 10 μL of the Promega detection reagent and 100×IC50 of inhibitors of the respective isoforms. After stopping the reaction the plate was incubated for 60 minutes at room temperature and the luminescence signal read on a PheraStar FS microplate reader (BMG Labtech) and resulting IC50 values were calculated using Dotmatics software.
Enzyme, substrate and cofactor concentrations were selected to ensure the reaction ran under initial velocity conditions.

[2] = In vivo pharmacokinetics in female BALB/c mice; set-up: species or system mouse; conditions: for AUC / Cmax: po, 5 mg/kg orally by gavage
Method: All procedures involving animals were performed in accordance with national Home Office regulations under the Animals (Scientific Procedures) Act 1986 and within guidelines set out by the Institute's Animal Ethics Committee and the United Kingdom Coordinating Committee for Cancer Research's ad hoc Committee on the Welfare of Animals in Experimental Neoplasia. Female BALB/c mice (Charles River Laboratories) at 6 weeks of age were used for the PK analyses. The mice were dosed orally by gavage (5 mg/kg in DMSO:water 1:19 v:v; n=6) or intravenously in the tail vein (1 mg/kg in DMSO:Tween20:saline 10:1:89 v:v:v; n=6). Blood samples (˜20 μL) were taken from the tail vein from each group of mice (2 groups, 3 mice/group) alternated at 5, 15 and 30 minutes, 1, 2, 4 and 6 and 8 hours after dosing. For clarity, group 1 was bled at 5 minutes, 30 minutes, 2 hours and 6 hours; group 2 was bled at 15 minutes, 1 hour, 4 hours and 8 hours. Plasma samples were snap frozen in liquid nitrogen and then stored at −80° C. prior to analysis.
Test compound solutions (1 mg/mL in DMSO) were used to make stock Standard Curve (SC) and Quality Control (QC) solutions at appropriate concentrations. Blank plasma was spiked with stock solutions to produce a 9-point standard curve ranging from 1.5-10,000 […]; with 2 QC concentrations within this range and where the DMSO concentration was 10% of the plasma volume. Plasma PK samples, Standards and QC's were added to individual Eppendorf tubes and DMSO (10% of plasma volume) was added to the plasma PK samples. SC, QC and plasma samples were extracted with methanol (100 μL) containing internal standard. Following protein precipitation, the samples were centrifuged for 10 minutes in a refrigerated centrifuge (4° C.) at 14000 rpm. The supernatants were removed to a 96-well plate and centrifuged for a further 10 minutes in a refrigerated centrifuge (4° C.) at 3700 rpm. Samples were analysed by Liquid Chromatography Mass Spectrometry (LC-MS/MS) for the compound plasma concentrations. Non-compartmental analysis was performed on plasma concentration data using the Excel macro PK Solver 2.0.

Compound | IC50 [1] | F ([2]; 5 mg/kg po vs 1 mg/kg iv) | clearance ([2]; mouse, plasma, iv, 1 mg/kg intravenously, read-out: Cl iv) | AUC ([2]; mouse, plasma) | Cmax ([2]; mouse, plasma)
O=C1CCc2cc(NC(=O)c3scnc3-c3cccc(F)c3)ccc2N1 [ALDHI-1003, 4-(3-fluorophenyl)-N-(2-oxo-3,4-dihydro-1H-quinolin-6-yl)thiazole-5-carboxamide] | ≥ 100 µM | 100% | 22.1 mL/min/kg | 13.3 µM·h | 6.1 µM
CN(CCOc1ccc2c(c1)CCC(=O)N2)C(=O)c1cccc(F)c1 [ALDHI-3008, 3-fluoro-N-methyl-N-[2-[(2-oxo-3,4-dihydro-1H-quinolin-6-yl)oxy]ethyl]benzamide] | ≥ 100 µM |  |  | 1.5 µM·h | 1.8 µM
O=C1CCc2cc(OCCN3CC(F)(F)CC3c3cccc(F)c3)ccc2N1 (centres unmarked) [ALDHI-2053, 6-[2-[4,4-difluoro-2-(3-fluorophenyl)pyrrolidin-1-yl]ethoxy]-3,4-dihydro-1H-quinolin-2-one] | ≥ 100 µM |  |  |  | 
O=C1CCc2cc(OCCN3CC(O)CC3c3cccc(F)c3)ccc2N1 (mixture of isomers) [ALDHI-2035, 6-[2-[2-(3-fluorophenyl)-4-hydroxy-pyrrolidin-1-yl]ethoxy]-3,4-dihydro-1H-quinolin-2-one] | ≥ 100 µM |  |  |  | 
O=C1CSc2cc(OCCN3CCCC3c3cccc(F)c3)ccc2N1 (centres unmarked) [ALDHI-2008, 7-[2-[2-(3-fluorophenyl)pyrrolidin-1-yl]ethoxy]-4H-1,4-benzothiazin-3-one] | ≥ 100 µM |  |  |  | 
